# According to the Kinase Knowledgebase extract (Sharma et al. 2016):
# Molecular target: PIK3CB;PIK3CG;PIK3CD;PIK3CA (human) (UniProt P48736)
# Experiment: Enzyme Assay
row,IC50,Structure (SMILES)
1,670 nM,COC(=O)c1cc(N2CCOCC2)c2nc(-n3ccnc3)nc(N3CCOCC3)c2n1
2,1760 nM,CN(C)CCNC(=O)c1cc(NCCN(C)C)c2nc(-n3ccnc3)nc(N3CCOCC3)c2n1
3,1830 nM,NC(=O)c1ccc2nc(-n3ccnc3)nc(N3CCOCC3)c2n1
4,810 nM,COC(=O)c1cc(Cl)c2nc(-n3ccnc3)nc(N3CCOCC3)c2n1
5,830 nM,COCc1ccc2nc(-n3ccnc3)nc(N3CCOCC3)c2n1
6,8450 nM,COCc1cc(CN2CCOCC2)c2nc(-n3ccnc3)nc(N3CCOCC3)c2n1
7,350 nM,COC(=O)c1cc(SC)c2nc(-n3ccnc3)nc(N3CCOCC3)c2n1
8,3290 nM,Cc1noc(-c2cc(Cl)c3nc(-n4ccnc4)nc(N4CCOCC4)c3n2)n1
9,3200 nM,CN(C)Cc1ccc2nc(-n3ccnc3)nc(N3CCOCC3)c2n1
10,1010 nM,COC(=O)c1cc(N2CCN(C)CC2)c2nc(-n3ccnc3)nc(N3CCOCC3)c2n1
11,2970 nM,CN(C)C(=O)c1ccc2nc(-n3ccnc3)nc(N3CCOCC3)c2n1
12,5720 nM,COC(=O)c1cc(SC)c2nc(-c3ccncc3)nc(N3CCOCC3)c2n1
13,950 nM,Cc1ccc2nc(-n3ccnc3)nc(N3CCOCC3)c2n1
14,1100 nM,CNC(=O)c1ccc2nc(-n3ccnc3)nc(N3CCOCC3)c2n1
15,2310 nM,COCc1cc(SC)c2nc(-n3ccnc3)nc(N3CCOCC3)c2n1
16,1290 nM,COCCNc1cc(C(=O)OC)nc2c(N3CCOCC3)nc(-n3ccnc3)nc12
17,3990 nM,OCc1ccc2nc(-n3ccnc3)nc(N3CCOCC3)c2n1
18,420 nM,COC(=O)c1cc(N(C)C)c2nc(-n3ccnc3)nc(N3CCOCC3)c2n1
19,730 nM,COC(=O)c1ccc2nc(-n3ccnc3)nc(N3CCOCC3)c2n1
20,420 nM,COCCN(C)c1cc(-c2nnc(C)o2)nc2c(N3CCOCC3)nc(-n3ccnc3)nc12
21,1650 nM,COC(=O)c1cc(Cl)c2nc(-n3cccn3)nc(N3CCOCC3)c2n1
22,1420 nM,COCCN(C)c1cc(C(=O)OC)nc2c(N3CCOCC3)nc(-n3ccnc3)nc12
23,570 nM,COC(=O)c1cc(S(C)(=O)=O)c2nc(-n3ccnc3)nc(N3CCOCC3)c2n1
24,8060 nM,COC(=O)c1cc(-n2cccc2)c2nc(-n3cccc3)nc(N3CCOCC3)c2n1
25,1890 nM,CN(C)CCNCc1ccc2nc(-n3ccnc3)nc(N3CCOCC3)c2n1
26,3530 nM,CSc1cc(-c2nc(C)no2)nc2c(N3CCOCC3)nc(-n3ccnc3)nc12
27,1160 nM,COCc1cc(N(C)C)c2nc(-n3ccnc3)nc(N3CCOCC3)c2n1

# Continued, compound first:
row,Structure (SMILES),IC50
1,COC(=O)c1cc(SC)c2nc(C)nc(N3CCOCC3)c2n1,6860 nM
2,CSc1cc(-c2nnc(C)o2)nc2c(N3CCOCC3)nc(-n3ccnc3)nc12,320 nM
3,Cc1noc(-c2ccc3nc(-n4ccnc4)nc(N4CCOCC4)c3n2)n1,800 nM
4,COC(=O)c1cc(SC)c2nc(-c3cccc4[nH]ccc34)nc(N3CCOCC3)c2n1,1270 nM
5,COCc1noc(-c2ccc3nc(-n4ccnc4)nc(N4CCOCC4)c3n2)n1,640 nM
6,Cc1noc(-c2cc(N(C)C)c3nc(-n4ccnc4)nc(N4CCOCC4)c3n2)n1,590 nM
7,c1cnc2c(N3CCOCC3)nc(-n3ccnc3)nc2c1,5280 nM
8,CSc1cc(-c2nc(C)no2)nc2c(N3CCOCC3)nc(-n3cccn3)nc12,220 nM
9,COC(=O)c1cc(SC)c2nc(-c3cn[nH]c3)nc(N3CCOCC3)c2n1,1270 nM
10,Cc1ccc2nc(-c3ccccc3)nc(N3CCOCC3)c2n1,1840 nM
11,COC(=O)c1cc(S(C)(=O)=O)c2nc(Cl)nc(N3CCOCC3)c2n1,2310 nM
12,Cc1nnc(-c2cc(N(C)C)c3nc(-n4ccnc4)nc(N4CCOCC4)c3n2)o1,230 nM
13,COC(=O)c1cc(SC)c2nc(-c3ccccc3)nc(N3CCOCC3)c2n1,2840 nM
14,COC(=O)c1cc(SC)c2nc(-c3ccc(OC)cc3)nc(N3CCOCC3)c2n1,11400 nM
15,CSc1cc(C(=O)N(C)C)nc2c(N3CCOCC3)nc(-c3cccc(CO)c3)nc12,140 nM
16,Cc1ccc2nc(Cl)nc(N3CCOCC3)c2n1,8610 nM
17,CSc1cc(CO)nc2c(N3CCOCC3)nc(-c3ccsc3)nc12,3880 nM
18,COCc1noc(-c2ccc3nc(-n4cccn4)nc(N4CCOCC4)c3n2)n1,830 nM
19,COCCN(C)c1cc(-c2nc(C)no2)nc2c(N3CCOCC3)nc(-n3cccn3)nc12,2510 nM
20,COC(=O)c1cc(Cl)c2nc(Cl)nc(N3CCOCC3)c2n1,12400 nM
21,COC(=O)c1cc(SC)c2nc(-c3cnn(C)c3)nc(N3CCOCC3)c2n1,1210 nM
22,COC(=O)c1ccc2nc(-c3ccccc3)nc(N3CCOCC3)c2n1,430 nM
23,CSCc1ccc2nc(-n3ccnc3)nc(N3CCOCC3)c2n1,3760 nM
24,OCc1cc(N2CCOCC2)c2nc(-n3ccnc3)nc(N3CCOCC3)c2n1,2980 nM
25,Cc1noc(-c2ccc3nc(-n4cccn4)nc(N4CCOCC4)c3n2)n1,500 nM
26,COC(=O)c1cc(SC)c2nc(Cl)nc(N3CCOCC3)c2n1,3530 nM
27,Cc1noc(-c2cc(N(C)C)c3nc(-n4cccn4)nc(N4CCOCC4)c3n2)n1,480 nM
28,COC(=O)c1cc(SC)c2nc(-c3ccsc3)nc(N3CCOCC3)c2n1,1830 nM
29,CSc1cc(C(=O)N(C)C)nc2c(N3CCOCC3)nc(-c3cccc4[nH]ncc34)nc12,860 nM
